Reference: US12643901B2, “Compounds” (The Provost, Fellows, Foundation Scholars, and the other …, priority 2020, dated 2026)

Columns and labels:
RASFCs = assay: Synovial fibroblast assay, IL-6 ELISA; type: cell-based, human; settings: RASFCs treated with TNF (10 ng/ml), 200 μm compound, supernatants at 72 hr, n=3, DMSO vehicle = 100%
Description: Synovial Fibroblast Assay
To assess the compounds in human rheumatoid arthritis samples the following protocol was employed:
Isolation of Primary Fibroblasts: RA synovial biopsies were digested with 1 mg/ml collagenase type 1 (Worthington Biochemical, Freehold, NJ, USA) in RPMI-1640 (Gibco-BRL, Paisley, UK) for 4 hr at 37° C. in humidified air with 5% CO2. Dissociated cells were grown to confluence in RPMI 1640, 10% FCS (Gibco-BRL), 10 ml of 1 mmol/l HEPES (Gibco-BRL), penicillin (100 units/ml; Bioscience), streptomycin (100 units/ml; Bioscience) and fungizone (0.25 μg/ml; Bioscience) before passaging. Cells were used between passages 3-8.
Compounds (200 μm) were tested on n=3 RASFCs
RASFCs were grown to 80% confluency in 48 well plates. RASFCs were treated with TNF (10 ng/ml) in the presence of 200 μm of each compound. Media was replaced after 24 h and fresh media and compound was added. Cell supernatants were collected at 72 hr time point. DMSO treated cells were used as a vehicle control (Red dotted line represents DMSO control).
IL-6 ELISA: Levels of pro-inflammatory cytokine IL6 were measured in cultured RASFC supernatants by specific ELISA (R&D systems, UK) according to manufacturer's conditions.
This assay measures the production of IL-6 as an indication of immune system activation: the lower the value the better from the point of view of alleviating RA symptoms. […]

[1] = molecular target: T1, queuine-tRNA ribosyltransferase enzyme complex (hQTRT1:hQTRT2) (Homo sapiens, UniProt Q9BXR0); assay: [8-14C] guanine displacement assay (TGT substrate); type: biochemical; settings: 50 μM compound, 30 mins at 37° C., ≥5% is considered a positive substrate for TGT
T1 construct: polyhistidine (N); made in house; host or cells: E. coli BL21(DE3) tgt::Kmr
Description: Compounds capable of acting as a queuine-tRNA ribosyltransferase enzyme complex substrate may be identified by use of a displacement assay as described below:
Production of [8-^14C] Guanine Labeled tRNA (tRNA*)
Before adding the 8-[^14C] guanine solution to the reaction the solution was neutralised with an equal volume (vol/vol) 0.01 M NaOH, as the [8-^14C] Guanine is supplied in 0.01 M HCl aqueous solution. In vitro synthesised human tyrosyl tRNA was prepared by T7 transcription in ultrapure nuclease-free water as described previously (Alqasem et al., 2020). Recombinant human QTRT1 enzyme containing an N-terminal polyhistidine tag and human QTRT2 containing a C-terminal TEV-Strep-Tag®II tag were produced in BL21(DE3) tgt::Kmr cells as described previously (Alqasem et al., 2020).
The reaction was incubated for 1 hour at 37° C. […] The tRNA* pellet was resuspended in 30 μL nuclease-free water and the concentration measured spectrophotometrically at A260. […]
After 30 mins the reactions were quenched by mixing with 2.5 ml ice-cold 10% trichloroacetic acid (TCA) and placed on ice for one hour to precipitate the tRNA. […] The vacuum manifold was disassembled, the filters recovered and dried again at room temperature before being placed in scintillation vials containing 10 ml of Ecoscint A and radioactivity levels measured by scintillation counting. […]

T1 sequence (Q9BXR0 whole entry): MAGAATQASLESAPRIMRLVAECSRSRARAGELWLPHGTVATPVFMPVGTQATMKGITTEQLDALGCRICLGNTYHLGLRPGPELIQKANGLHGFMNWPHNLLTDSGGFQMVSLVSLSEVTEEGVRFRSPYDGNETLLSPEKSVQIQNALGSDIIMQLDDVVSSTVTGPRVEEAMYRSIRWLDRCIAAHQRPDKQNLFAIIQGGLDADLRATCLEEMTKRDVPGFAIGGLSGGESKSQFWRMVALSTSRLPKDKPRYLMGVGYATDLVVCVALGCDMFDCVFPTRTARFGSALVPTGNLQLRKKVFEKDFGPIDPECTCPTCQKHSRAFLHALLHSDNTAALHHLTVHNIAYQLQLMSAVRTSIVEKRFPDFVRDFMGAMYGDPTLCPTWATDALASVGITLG
T1 sequence (Q9H974 whole entry partner): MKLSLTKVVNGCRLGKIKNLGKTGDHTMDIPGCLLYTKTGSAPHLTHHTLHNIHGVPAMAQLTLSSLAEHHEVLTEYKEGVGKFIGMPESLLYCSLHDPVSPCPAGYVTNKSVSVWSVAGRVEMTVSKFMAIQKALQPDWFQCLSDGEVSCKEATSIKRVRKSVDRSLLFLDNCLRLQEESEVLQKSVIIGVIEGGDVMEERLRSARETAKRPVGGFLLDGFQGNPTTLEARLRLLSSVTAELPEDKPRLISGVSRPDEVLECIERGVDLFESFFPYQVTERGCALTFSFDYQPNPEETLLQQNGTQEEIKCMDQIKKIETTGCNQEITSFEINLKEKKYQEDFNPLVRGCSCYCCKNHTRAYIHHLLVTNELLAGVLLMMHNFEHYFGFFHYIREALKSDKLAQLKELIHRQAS

Structure (SMILES) | Level of IL6 expression compared to vehicle (RASFCs) | displacement of the [14C] guanine [1]
C[C@@H]1CCN(C(=O)CC#N)C[C@@H]1N(C)c1ncnc2[nH]ccc12 [Tofacitinib, reference compound] | Reduction to 58% | 
CO/N=C/c1c[nH]c2nc(N)[nH]c(=O)c12 [Example 2, 2-Amino-4-oxo-4,7-dihydro-3H-pyrrolo[2,3-d]pyrimidine-5-carbaldehyde O-methyl oxime] | Reduction to 15% | 
Nc1nc2[nH]cc(CNOCCc3ccccc3)c2c(=O)[nH]1 [Example 1, 2-Amino-5-((phenethoxyamino)methyl)-3,7-dihydro-4H-pyrrolo[2,3-d]pyrimidin-4-one] | Reduction to 17% | 
Nc1nc2[nH]cc(CN[C@H]3C=C[C@H](O)[C@@H]3O)c2c(=O)[nH]1 [queuine base, queuine] |  | > 98%
Nc1nc2[nH]cc(/C=N/O)c2c(=O)[nH]1 [Example 4, 2-Amino-4-oxo-4,7-dihydro-3H-pyrrolo[2,3-d]pyrimidine-5-carbaldehyde oxime] | Reduction to 15% | 
